The source of these data is patent publication US8735388B2, “Heterocyclic compounds with affinity to muscarinic receptors” (Abbvie B. V. A., priority 2007, dated 2014).

The target of assay [1] is T1, Muscarine M1 (GPCR-A-MA-ACH M1) (Homo sapiens, UniProt P11229).
T1 construct: expressed in transfected cells; host or cells: CHO cells
T1 sequence (P11229 1-460): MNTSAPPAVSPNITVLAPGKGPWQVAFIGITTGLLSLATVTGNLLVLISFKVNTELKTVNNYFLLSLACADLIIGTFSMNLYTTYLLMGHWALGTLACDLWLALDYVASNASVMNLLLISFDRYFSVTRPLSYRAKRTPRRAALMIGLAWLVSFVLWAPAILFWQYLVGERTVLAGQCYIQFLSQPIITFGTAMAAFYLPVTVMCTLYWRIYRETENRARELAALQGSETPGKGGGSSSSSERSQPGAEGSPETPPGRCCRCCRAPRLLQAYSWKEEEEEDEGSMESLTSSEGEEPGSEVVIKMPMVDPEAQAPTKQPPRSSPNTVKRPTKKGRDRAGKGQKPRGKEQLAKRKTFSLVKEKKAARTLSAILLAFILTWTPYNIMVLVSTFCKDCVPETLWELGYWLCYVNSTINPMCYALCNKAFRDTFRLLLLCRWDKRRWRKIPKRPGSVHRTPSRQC
The experiment in a line: Muscarine M1 receptor binding, 3H-Pirenzepine. To be noted: human M1, CHO cells, ligand 2 nM, 60 min/22° C.; for Ki: read-out: RB Musc. M1 3H-Pirenzepine pKi (converted). As for the experimental part:
(§1) Compounds were dissolved in DMSO (10 mM) and diluted in assay buffer to test concentration. Prime testing was at 10 μM; for actives (PI, percent inhibition with respect to total and non-specific binding >40%) testing was continued at lower concentrations in 10-fold dilutions: 1 μM, 0.1 μM, etc.
(§2) Following incubation of compound with the receptor preparation (from ‘Tissue’) and the Ligand at the time and temperature indicated, the receptor preparations were rapidly filtered under vacuum through glass fibre filters; the filters were washed extensively with an ice-cold buffer using a harvester. Bound radioactivity was measured by scintillation counting using a liquid scintillation cocktail.
(§3) Results were expressed as percentage of total Ligand binding and that of Non Specific Binding, per concentration of Compound tested (duplicates); from the concentration—displacement curves IC50 values were determined by non-linear regression analysis using Hill equation curve fitting. The inhibition constants (Ki) were calculated from the Cheng-Prushoff equation Ki=IC50/(1+L/Kd), where L is the concentration of radioligand in the assay, and Kd the affinity of the radioligand for the receptor. Results were expressed as pKi's, means±SD of at least 2 separate experiments; i.e. outliers (outside+/−1 std of mean) and discrepancies were excluded.

For assay [2], the target named is T2, Muscarine M4 (GPCR-A-MA-ACH M4) (Homo sapiens, UniProt P08173).
T2 construct: expressed in transfected cells; host or cells: CHO cells
T2 sequence (P08173 1-479): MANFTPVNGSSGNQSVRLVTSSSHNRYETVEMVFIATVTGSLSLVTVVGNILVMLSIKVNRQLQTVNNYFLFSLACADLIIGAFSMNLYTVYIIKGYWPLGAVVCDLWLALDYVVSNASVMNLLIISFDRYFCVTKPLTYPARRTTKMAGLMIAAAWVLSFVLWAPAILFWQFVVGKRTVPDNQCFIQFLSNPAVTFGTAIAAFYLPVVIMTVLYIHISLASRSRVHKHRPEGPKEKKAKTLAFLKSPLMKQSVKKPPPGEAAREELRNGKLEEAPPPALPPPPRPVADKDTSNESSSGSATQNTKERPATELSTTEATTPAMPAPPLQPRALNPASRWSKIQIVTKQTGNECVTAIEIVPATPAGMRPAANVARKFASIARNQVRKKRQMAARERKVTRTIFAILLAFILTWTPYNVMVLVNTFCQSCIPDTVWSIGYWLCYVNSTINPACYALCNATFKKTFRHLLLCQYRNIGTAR
Put plainly: Muscarine M4 receptor binding, 3H-4DAMP. The settings on record: human M4, CHO cells, ligand 0.2 nM, 60 min/22° C.; for Ki: read-out: RB Musc. M4 3H-DAMP pKi (converted). On the procedure: as §1, §2, §3

In assay [3] the target is T1, Muscarine M1 (GPCR-A-MA-ACH M1). Put plainly: Muscarine M1 cell-based functional assay (CHO cells, Ca2+ - FLIPR Fluorimetry). To be noted: human M1, CHO cells; agonist mode, reference agonist acetylcholine; read-out: Cell funct. Musc. M1 Agonism pEC50 (converted).
The target in assay [4] is T2, Muscarine M4 (GPCR-A-MA-ACH M4). Put plainly: Muscarine M4 cell-based functional assay (CHO cells, Ca2+ - Aequorin luminescence). As for the experimental part:
Compounds were dissolved in DMSO (10 mM) and diluted in assay buffer to test concentration. Prime testing was at 1 μM; for actives in antagonist mode (PI, percent inhibition with respect to reference agonist and blank>30%) as well as actives in agonist mode (PS, percent stimulation with respect to reference agonist and blank>30%) testing was continued at lower concentrations in 10-fold dilutions: 0.1 μM, 0.01 μM, etc.
Cells were incubated with compound and the response indicated was measured.
The results are expressed as a percent of reference agonist values and blanks in the presence of the test compound, percent stimulation for agonist mode; for the antagonist mode (test compound in the presence of reference agonist) as percent inhibition. The EC50 values (concentration causing a half-maximal stimulation of control values), IC50 values (concentration causing a half-maximal inhibition of control values) were determined by non-linear regression analysis of the concentration-response curves using Hill equation curve fitting.

Assay [5] shares this target. Put plainly: Muscarine M4 receptor binding, 3H-Oxotremorine. The settings on record: human M4, CHO cells, receptor binding, ligand 6 nM, 30 min/25° C.; for Ki: read-out: RB Musc. M4 3H-Oxotremorine pKi (converted). As for the experimental part:
as §1, §2, §3

Where [6] appears, read: human M4, CHO cells, agonist mode, reference agonist oxotremorine, read-out: Cell funct. Musc. M4 Agonism pEC50 (converted).

The structures appear in SMILES notation. Read-outs that look alike come from different tables or passages of the source.

With `CCCCC=Cc1conc1C1=CCCN(C)C1` [Compound 68A, 3-(4-Hex-1-enyl-isoxazol-3-yl)-1,2,5,6-tetrahydro-1-methylpyridine], the Ki in assay [1] was 1580 nM; in assay [2], 251 nM; in assay [5] it was 631 nM. The EC50 in assay [3] is 200 nM; in assay [4] (setting [6]), 794 nM.

Regarding `CCCCCc1c[nH]nc1C1=CCCN(C)C1` [Compound 9, 3-(4-Pentyl-1H-pyrazol-3-yl)-1,2,5,6-tetrahydro-1-methylpyridine], the Ki in assay [1] was 1260 nM; in assay [2], 316 nM; in assay [5], 398 nM. Also, the EC50 in assay [3] is 126 nM; in assay [4] (setting [6]), over 10000 nM.

As to `CCCCCCCC#Cc1c[nH]nc1C1=CCCN(C)C1` [Compound 45C, 3-(4-Non-1-ynyl-1H-pyrazol-3-yl)-1,2,5,6-tetrahydro-1-methylpyridine], the Ki is 794 nM in assay [1], 794 nM in assay [2] and 501 nM in assay [5]. Moreover, the EC50 is over 1000 nM in assay [3] and 2000 nM in assay [4] (setting [6]).

For `CN1CCC=C(c2n[nH]cc2SCCCc2ccccc2)C1` [Compound 22I, 3-[4-(3-Phenyl-propylsulfanyl)-1H-pyrazol-3-yl]-1,2,5,6-tetrahydro-1-methylpyridine], the Ki in assay [1] is 794 nM; in assay [2] it was 251 nM; in assay [5], 100 nM. For the same compound, the EC50 was 100 nM in assay [3] and 251 nM in assay [4] (setting [6]).

With `CCCCSc1cc(C2=CCCN(C)C2)n[nH]1` [Compound 26, 3-(5-Butylsulfanyl-1H-pyrazol-3-yl)-1,2,5,6-tetrahydro-1-methylpyridine], the Ki was 158 nM in assay [1], 200 nM in assay [2] and 251 nM in assay [5]. Further, the EC50 in assay [4] (setting [6]) is over 10000 nM.

For `CCCCCCSc1conc1C1=CCCN(C)C1` [Compound 66B, 3-(4-Hexylsulfanyl-isoxazol-3-yl)-1,2,5,6-tetrahydro-1-methylpyridine], the results for the Ki in assay [1], in assay [2] and in assay [5] were 631 nM, 100 nM and 158 nM, respectively. The EC50 in assay [4] (setting [6]) was 501 nM.

As to `CN1CCC=C(c2n[nH]cc2C#CCCCc2ccccc2)C1` [Compound 45D, 3-[4-(5-Phenyl-pent-1-ynyl)-1H-pyrazol-3-yl]-1,2,5,6-tetrahydro-1-methylpyridine], the Ki in assay [1] is 2000 nM; in assay [2], 631 nM; in assay [5], 501 nM. The values for the EC50 in assay [3] and in assay [4] (setting [6]) were 794 nM and 1260 nM, respectively.

Regarding `CN1CCC=C(c2n[nH]cc2SCc2ccco2)C1` [Compound 22M, 3-[4-(Furan-2-yl-methylsulfanyl)-1H-pyrazol-3-yl]-1,2,5,6-tetrahydro-1-methylpyridine], the Ki was 501 nM in assay [1], 398 nM in assay [2] and 251 nM in assay [5]. The EC50 in assay [4] (setting [6]) was over 10000 nM.

For `CCCCCSc1c[nH]nc1[C@@H]1CN2CCC[C@H]1C2` [Compound 60A, Endo-6-(4-pentylsulfanyl-1H-Pyrazol-3-yl)-1-azabicyclo[3.2.1]octane], the values for the Ki in assay [1], in assay [2] and in assay [5] were 398 nM, 251 nM and 63.1 nM, respectively. The EC50 in assay [4] (setting [6]) was over 10000 nM.

Take `CCCCCCC=Cc1c[nH]nc1C1=CCCN(C)C1` [Compound 47C, 3-(4-Oct-1-enyl-1H-pyrazol-3-yl)-1,2,5,6-tetrahydro-1-methylpyridine]: the Ki in assay [1] was 794 nM; in assay [2], 794 nM; in assay [5], 251 nM. Further, the EC50 in assay [3] was 794 nM; in assay [4] (setting [6]), 631 nM.

Consider `CCCCc1c[nH]nc1C1=CCCN(C)C1` [Compound 16, 3-(4-Butyl-1H-pyrazol-3-yl)-1,2,5,6-tetrahydro-1-methylpyridine], for which the EC50 in assay [4] (setting [6]) is over 10000 nM.

As to `CN1CCC=C(c2n[nH]cc2C=Cc2cccc(F)c2)C1` [Compound 47B, 3-{-4-2[-(3-Fluor-Phenyl)-vinyl]-1H-pyrazol-3-yl}-1,2,5,6-tetrahydro-1-methylpyridine], the “RB Musc. M1 3H-Pirenzepine pKi” value in assay [1] is given as 6.1. For the same compound, the “RB Musc. M4 3H-DAMP pKi” value in assay [2] turned out to be 6.5. Also, in assay [4] (human M4, CHO cells, agonist mode, reference agonist oxotremorine), the “Cell funct. Musc. M4 Agonism pEC50” value is listed as under 5.0. Moreover, in assay [5], the “RB Musc. M4 3H-Oxotremorine pKi” value came to 6.8.

As for `CN1CCC=C(c2n[nH]cc2SCCC#N)C1` [Compound 22R, 3-[3-(1-Methyl-1,2,5,6-tetrahydro-pyridin-3-yl)-1H-pyrazol-4-ylsulfanyl]-propionitrile], the Ki is 12600 nM in assay [1], 3980 nM in assay [2] and 2000 nM in assay [5]. For the same compound, in assay [4] (setting [6]), the EC50 is over 10000 nM.

Turning to `CCCCNc1c[nH]nc1C1=CCCN(C)C1` [Compound 42, Butyl-[3-(1-Methyl-1,2,5,6-tetrahydro-pyridin-3-yl)-1H-pyrazol-4-yl]-amine], the results for the Ki in assay [1], in assay [2] and in assay [5] were 7940 nM, 5010 nM and 3980 nM, respectively. For the same compound, the EC50 in assay [4] (setting [6]) was over 10000 nM.

In the case of `CCCC(=O)Nc1c[nH]nc1C1=CCCN(C)C1` [Compound 41], the Ki in assay [1], in assay [2] and in assay [5] was over 10000 nM each time. Also, in assay [4] (setting [6]), the EC50 was over 10000 nM.

With `CCCCSc1conc1C1=CCCN(C)C1` [Compound 66A, 3-(4-Butylsulfanyl-isoxazol-3-yl)-1,2,5,6-tetrahydro-1-methylpyridine], the figures for the Ki in assay [1], in assay [2] and in assay [5] were 251 nM, 39.8 nM and 79.4 nM, respectively. Besides, in assay [4] (setting [6]), the EC50 was over 10000 nM.

For `CN1CCC=C(c2n[nH]cc2SCc2ccccc2)C1` [Compound 22N, 3-(4-Benzylsulfanyl-1H-pyrazol-3-yl)-1,2,5,6-tetrahydro-1-methylpyridine], the figures for the Ki in assay [1], in assay [2] and in assay [5] were 398 nM, 251 nM and 251 nM, respectively. Besides, the EC50 in assay [4] (setting [6]) is over 10000 nM.

The compound `O=C1CCCN1CC#CCN1CCCC1` [oxotremorine, reference compound] gave an EC50 in assay [4] of 40 nM.

`C=CCSc1c[nH]nc1C1=CCCN(C)C1` [Compound 22Q, 3-(4-Allylsulfanyl-1H-pyrazol-3-yl)-1,2,5,6-tetrahydro-1-methylpyridine]: the Ki in assay [1] is 794 nM; in assay [2], 501 nM; in assay [5], 126 nM. The EC50 in assay [4] (setting [6]) is over 10000 nM.
